The test addresses GLP1R (Homo sapiens, UniProt P43220). Put plainly: Agonist activity on GLP1R/CRE-LUC HEK293 cells (luciferase reporter, ONE-Glo). To be noted: for EC50: GLP1R/CRE-LUC HEK293 cells, 6 hours incubation, chemiluminescence signal; for activity compared with comparative example compounds PF-06882961, DB02, DB03 and DB06: from Table 1, also much higher than DB04 and DB05. The test is classed as cell-based. How it is done:
Logarithmically growing GLP1R/CRE-LUC HEK293 cells (purchased from Nanjing Cobioer) were digested, the digested cells were re-suspended in a DMEM+10% FBS culture medium, and a cell density was adjusted to be 3.5*10^5/mL. The cell solution was added into a 96-well cell culture plate by 100 µL/well, and the plate was cultured overnight in an incubator (37° C., 5% CO2).
A compound was dissolved with DMSO to prepare a storage solution at an initial concentration of 10 mM, an initial concentration of the small molecular compound was 0.2 mM, and the compound was diluted by 3 times and 10 points were diluted, while the 11th point was DMSO. Another 96-well plate was taken, added with 95 μL of cell culture solution (DMEM+10% FBS) in each well, then added with 5 μL of to-be-tested samples at different concentrations in each well, mixed evenly, and then added with 11 μL of to-be-tested samples at different concentrations in each well of the cell culture plate, and each sample had two wells. The culture plate was incubated in an incubator for 6 hours (37° C., […]). The 96-well cell culture plate was taken out, added with 100 μL of ONE-Glo™ reagent in each well, and incubated at room temperature for 10 minutes, and a chemiluminescence signal value was measured with an enzyme-labeled instrument. Data were processed and analyzed by Microsoft Excel and Graphpad Prism6 to obtain an EC50 value of the compound.
In general terms: Reporter assays use an easily measured gene product as a stand-in for the process of interest.

The source of these data is US20250136584A1, “Benzimidazole Or Azabenzimidazole Compound, Preparation Method Therefor And Use Thereof” (Chengdu Di'Ao Jiuhong Pharmaceutical Factory, priority 2022, published 2025).

Chain of GLP1R (P43220 24-463): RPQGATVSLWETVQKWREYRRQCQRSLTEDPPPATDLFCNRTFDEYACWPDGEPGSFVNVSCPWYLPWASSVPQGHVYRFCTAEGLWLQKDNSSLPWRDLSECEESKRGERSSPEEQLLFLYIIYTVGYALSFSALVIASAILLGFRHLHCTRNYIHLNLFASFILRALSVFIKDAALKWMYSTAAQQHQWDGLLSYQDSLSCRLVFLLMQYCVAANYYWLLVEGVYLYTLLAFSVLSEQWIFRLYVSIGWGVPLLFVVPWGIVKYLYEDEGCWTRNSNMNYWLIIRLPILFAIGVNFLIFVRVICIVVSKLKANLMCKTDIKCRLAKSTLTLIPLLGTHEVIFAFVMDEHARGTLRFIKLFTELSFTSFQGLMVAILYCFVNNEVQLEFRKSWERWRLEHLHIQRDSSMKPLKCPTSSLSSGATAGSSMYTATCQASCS

Consider `O=C(O)c1ccc2nc(CC3CCN(c4cccc(OCc5ccc(Cl)c6ccoc56)n4)CC3)n(C[C@@H]3CCO3)c2c1` [Compound 1], for which the EC50 – broadly, the concentration at which the effect is half-maximal – stood at 114 nM.
On the same count and under the same terms, then `O=C(O)c1ccc2nc(CC3=CCN(c4cccc(OCc5ccc(Cl)c6ccoc56)n4)CC3)n(C[C@@H]3CCO3)c2c1` [Compound 2], with 101 nM.
Same read-out and setting: then `N#Cc1ccc(COc2cccc(N3CCC(Cc4nc5ccc(C(=O)O)cc5n4C[C@@H]4CCO4)CC3)n2)c2occc12` [Compound 3], with 65.1 nM.
For `O=C(O)c1ccc2nc(CN3CC=C(c4cccc(OCc5cccc6c5oc5ccccc56)n4)CC3)n(C[C@@H]3CCO3)c2c1` [Compound 13], the EC50 amounted to 13.6 nM; the “activity compared with comparative example compounds PF-06882961, DB02, DB03 and DB06” value is given as “higher”.
Turning to `O=C(O)c1ccc2nc(CN3CC=C(c4cccc(OCc5cccc6c5oc5ccccc56)n4)CC3)n(C[C@@H]3CCO3)c2n1` [Compound 14], the EC50 was 6.76 nM; the “activity compared with comparative example compounds PF-06882961, DB02, DB03 and DB06” value was “higher”.
With `O=C(O)c1ccc2nc(CC3CC=C(c4cccc(OCc5cccc6c5oc5ccccc56)n4)CC3)n(C[C@@H]3CCO3)c2c1` (stereo partly drawn) [Compound 15], the EC50 amounted to 25.8 nM.
With `O=C(O)c1ccc2nc(Cc3cc(F)c(-c4cccc(OCc5ccc(Cl)c6ccoc56)n4)cc3F)n(C[C@@H]3CCO3)c2c1` [Compound 25], it took 11.5 nM to reach a half-maximal effect (EC50); the “activity compared with comparative example compounds PF-06882961, DB02, DB03 and DB06” value is on record as “higher”.
`N#Cc1ccc(COc2cccc(-c3ccc(Cc4nc5ccc(C(=O)O)nc5n4C[C@@H]4CCO4)c(F)c3)n2)c2occc12` [Compound 67]: the EC50 turned out to be 1.97 nM; the “activity compared with comparative example compounds PF-06882961, DB02, DB03 and DB06” value is given as “higher”.
The matching figures for `O=C(O)c1ccc2nc(Cc3ccc(-c4cccc(OCc5ccc(Cl)c6ccoc56)n4)cc3F)n(C[C@@H]3CCO3)c2c1F` [Compound 91]: 0.76 nM and “higher”.
The matching figures for `O=C(O)c1ccc2nc(Cc3ccc(-c4cccc(OCc5ccc(Cl)c6cc(F)oc56)n4)cc3F)n(C[C@@H]3CCO3)c2c1F` [Compound 92]: 1.76 nM and “higher”.
The matching figures for `O=C(O)c1ccc2nc(Cc3ccc(-c4nc(OCc5ccc(Cl)c6ccoc56)ccc4F)cc3F)n(C[C@@H]3CCO3)c2c1` [Compound 95]: 2.33 nM and “higher”.
`O=C(O)c1ccc2nc(Cc3ccc(-c4nc(OCc5ccc(Cl)c6ccoc56)c(F)cc4F)cc3F)n(C[C@@H]3CCO3)c2c1` [Compound 96]: the response was half-maximal at 3.02 nM (EC50); the “activity compared with comparative example compounds PF-06882961, DB02, DB03 and DB06” value was “higher”.
The matching figures for `O=C(O)c1ccc2nc(Cc3ccc(-c4ccc(F)c(OCc5cccc6c5oc5ccccc56)n4)cc3F)n(C[C@@H]3CCO3)c2c1` [Compound 97]: 7.57 nM and “higher”.
The matching figures for `O=C(O)c1ccc2nc(Cc3c(F)cc(-c4cccc(OCc5ccc(Cl)c6ccoc56)n4)cc3F)n(C[C@@H]3CCO3)c2c1` [Compound 101]: 0.69 nM and “higher”.
The matching figures for `Cc1cc2c(Cl)ccc(COc3cccc(-c4ccc(Cc5nc6ccc(C(=O)O)cc6n5C[C@@H]5CCO5)c(F)c4)n3)c2o1` [Compound 102]: 9.1 nM and “higher”.
For `O=C(O)c1ccc2nc(Cc3ccc(-c4ccc(F)c(OCc5ccc(F)c6ccoc56)n4)cc3F)n(C[C@@H]3CCO3)c2c1` [Compound 103], the EC50 worked out at 1.17 nM; the “activity compared with comparative example compounds PF-06882961, DB02, DB03 and DB06” value was “higher”.
The matching figures for `O=C(O)c1cc(F)c2nc(Cc3ccc(-c4cccc(OCc5ccc(Cl)c6ccoc56)n4)cc3F)n(C[C@@H]3CCO3)c2c1` [Compound 105]: 1.09 nM and “higher”.
